Results as given in ChEMBL document CHEMBL3045838, “Synthesis, antimicrobial and antioxidant activities of 2-[1-{3,5-diaryl-4,5-dihydro-1H-pyrazolenyl}]-4-(4-nitrophenyl)-[1,3]-thiazoles” (2013).
≈ marks a conversion by molar mass, not a printed value.

Columns and labels:
Type in all cases: functional
[1] = system: Radical scavenging activity; assay: Antioxidant activity assessed as inhibition of DPPH radical generation at 4000 ug/mL after 15 min by UV-Vis spectrophotometric analysis relative to control; details: at 4000 µg/mL
[2] = system: Trichophyton mentagrophytes; assay: Antifungal activity against Trichophyton mentagrophytes assessed as growth inhibition at 1.56 to 25 ug/mL
[3] = system: Trichophyton mentagrophytes; assay: Antifungal activity against Trichophyton mentagrophytes assessed as growth inhibition by serial plate dilution method
[4] = system: Escherichia coli; assay: microbe, parasite or virus in culture; details: ATCC 25922
Description: Antibacterial activity against Escherichia coli ATCC 25922 assessed as growth inhibition by serial plate dilution method

[5] = system: Klebsiella pneumoniae; assay: Antibacterial activity against Klebsiella pneumoniae assessed as growth inhibition by serial plate dilution method
[6] = system: Staphylococcus aureus; assay: Antibacterial activity against Staphylococcus aureus ATCC 25923 assessed as growth inhibition by serial plate dilution method
[7] = system: Aspergillus flavus; assay: Antifungal activity against Aspergillus flavus NCIM 524 assessed as growth inhibition at 1.56 to 25 ug/mL
[8] = system: Talaromyces marneffei; assay: Antifungal activity against Talaromyces marneffei assessed as growth inhibition by serial plate dilution method
[9] = system: Talaromyces marneffei; assay: Antifungal activity against Talaromyces marneffei assessed as growth inhibition at 1.56 to 25 ug/mL
[10] = system: Aspergillus fumigatus; assay: Antifungal activity against Aspergillus fumigatus NCIM 902 assessed as growth inhibition by serial plate dilution method
[11] = system: Pseudomonas aeruginosa; assay: Antibacterial activity against Pseudomonas aeruginosa ATCC 27853 assessed as growth inhibition at 1.56 to 25 ug/mL
[12] = system: Klebsiella pneumoniae; assay: Antibacterial activity against Klebsiella pneumoniae assessed as growth inhibition at 1.56 to 25 ug/mL
[13] = system: Aspergillus fumigatus; assay: Antifungal activity against Aspergillus fumigatus NCIM 902 assessed as growth inhibition at 1.56 to 25 ug/mL
[14] = system: Pseudomonas aeruginosa; assay: Antibacterial activity against Pseudomonas aeruginosa ATCC 27853 assessed as growth inhibition by serial plate dilution method
[15] = system: Escherichia coli; assay: Antibacterial activity against Escherichia coli ATCC 25922 assessed as growth inhibition at 1.56 to 25 ug/mL
[16] = system: Staphylococcus aureus; assay: Antibacterial activity against Staphylococcus aureus ATCC 25923 assessed as growth inhibition at 1.56 to 25 ug/mL
[17] = system: Aspergillus flavus; assay: Antifungal activity against Aspergillus flavus NCIM 524 assessed as growth inhibition by serial plate dilution method

MIC [3] [µg/mL]	MIC [4] [µg/mL]	MIC [5] [µg/mL]	MIC [6] [µg/mL]	MIC [8] [µg/mL]	MIC [10] [µg/mL]	MIC [14] [µg/mL]	MIC [17] [µg/mL]	Structure (SMILES)	inhibition [1] [%]	diameter of the inhibition zone (DIZ) [2] [mm]	diameter of the inhibition zone (DIZ) [7] [mm]	diameter of the inhibition zone (DIZ) [9] [mm]	diameter of the inhibition zone (DIZ) [11] [mm]	diameter of the inhibition zone (DIZ) [12] [mm]	diameter of the inhibition zone (DIZ) [13] [mm]	diameter of the inhibition zone (DIZ) [15] [mm]	diameter of the inhibition zone (DIZ) [16] [mm]
6.25 (≈ 10.6 µM)	6.25 (≈ 10.6 µM)	6.25 (≈ 10.6 µM)	6.25 (≈ 10.6 µM)	6.25 (≈ 10.6 µM)	6.25 (≈ 10.6 µM)	6.25 (≈ 10.6 µM)	6.25 (≈ 10.6 µM)	COc1ccc(C2=NN(c3nc(-c4ccc([N+](=O)[O-])cc4)cs3)C(c3ccc(-c4ccc(Cl)cc4)o3)C2)cc1OC (stereo unspecified)	35	16	16	16	16	16	16	16	16
6.25 (≈ 9.53 µM)	6.25 (≈ 9.53 µM)	6.25 (≈ 9.53 µM)	6.25 (≈ 9.53 µM)	6.25 (≈ 9.53 µM)	6.25 (≈ 9.53 µM)	6.25 (≈ 9.53 µM)	6.25 (≈ 9.53 µM)	COc1ccc(C2=NN(c3nc(-c4ccc([N+](=O)[O-])cc4)cs3)C(c3ccc(-c4cc(Cl)c(Cl)cc4Cl)o3)C2)cc1OC (stereo unspecified)	57	16	16	16	16	16	16	16	16
6.25 (≈ 10.5 µM)	6.25 (≈ 10.5 µM)	6.25 (≈ 10.5 µM)	6.25 (≈ 10.5 µM)	6.25 (≈ 10.5 µM)	6.25 (≈ 10.5 µM)	6.25 (≈ 10.5 µM)	6.25 (≈ 10.5 µM)	COc1ccc(C2=NN(c3nc(-c4ccc([N+](=O)[O-])cc4)cs3)C(c3ccc(-c4ccc([N+](=O)[O-])cc4)o3)C2)cc1OC (stereo unspecified)	62	16	16	16	16	16	16	16	16
12.5 (≈ 19.8 µM)	12.5 (≈ 19.8 µM)	12.5 (≈ 19.8 µM)	12.5 (≈ 19.8 µM)	12.5 (≈ 19.8 µM)	12.5 (≈ 19.8 µM)	12.5 (≈ 19.8 µM)	12.5 (≈ 19.8 µM)	COc1ccc(C2=NN(c3nc(-c4ccc([N+](=O)[O-])cc4)cs3)C(c3ccc(-c4ccc(Cl)cc4[N+](=O)[O-])o3)C2)cc1OC (stereo unspecified)	82	11	11	11	11	11	11	11	11
6.25 (≈ 10.2 µM)	6.25 (≈ 10.2 µM)	6.25 (≈ 10.2 µM)	6.25 (≈ 10.2 µM)	6.25 (≈ 10.2 µM)	6.25 (≈ 10.2 µM)	6.25 (≈ 10.2 µM)	6.25 (≈ 10.2 µM)	COc1ccc(C2=NN(c3nc(-c4ccc([N+](=O)[O-])cc4)cs3)C(c3ccc(-c4ccc([N+](=O)[O-])cc4C)o3)C2)cc1OC (stereo unspecified)	14	16	16	16	16	16	16	16	16
6.25 (≈ 10.1 µM)	6.25 (≈ 10.1 µM)	6.25 (≈ 10.1 µM)	6.25 (≈ 10.1 µM)	6.25 (≈ 10.1 µM)	6.25 (≈ 10.1 µM)	6.25 (≈ 10.1 µM)	6.25 (≈ 10.1 µM)	COc1ccc(C2=NN(c3nc(-c4ccc([N+](=O)[O-])cc4)cs3)C(c3ccc(-c4ccc(Cl)cc4Cl)o3)C2)cc1OC (stereo unspecified)	86	16	16	16	16	16	16	16	16
6.25 (≈ 10.3 µM)	6.25 (≈ 10.3 µM)	6.25 (≈ 10.3 µM)	6.25 (≈ 10.3 µM)	6.25 (≈ 10.3 µM)	6.25 (≈ 10.3 µM)	6.25 (≈ 10.3 µM)	6.25 (≈ 10.3 µM)	COc1ccc(C2=NN(c3nc(-c4ccc([N+](=O)[O-])cc4)cs3)C(c3ccc(-c4ccc(F)c(Cl)c4)o3)C2)cc1OC (stereo unspecified)	74	16	16	16	16	16	16	16	16

Further lines, the compound ahead of its results:

Structure (SMILES)	MIC [3] [µg/mL]	MIC [4] [µg/mL]	MIC [5] [µg/mL]	MIC [6] [µg/mL]	MIC [8] [µg/mL]	MIC [10] [µg/mL]	MIC [14] [µg/mL]	MIC [17] [µg/mL]	inhibition [1] [%]	diameter of the inhibition zone (DIZ) [2] [mm]	diameter of the inhibition zone (DIZ) [7] [mm]	diameter of the inhibition zone (DIZ) [9] [mm]	diameter of the inhibition zone (DIZ) [11] [mm]	diameter of the inhibition zone (DIZ) [12] [mm]	diameter of the inhibition zone (DIZ) [13] [mm]	diameter of the inhibition zone (DIZ) [15] [mm]	diameter of the inhibition zone (DIZ) [16] [mm]
CSc1ccc(C2CC(c3ccc(Cl)cc3Cl)=NN2c2nc(-c3ccc([N+](=O)[O-])cc3)cs2)cc1 (stereo unspecified)	6.25 (≈ 11.5 µM)	6.25 (≈ 11.5 µM)	6.25 (≈ 11.5 µM)	6.25 (≈ 11.5 µM)	6.25 (≈ 11.5 µM)	6.25 (≈ 11.5 µM)	6.25 (≈ 11.5 µM)	6.25 (≈ 11.5 µM)	88	16	16	16	16	16	16	16	16
COc1ccc(C2=NN(c3nc(-c4ccc([N+](=O)[O-])cc4)cs3)C(c3ccc(SC)cc3)C2)cc1OC (stereo unspecified)	25 (≈ 46.9 µM)	25 (≈ 46.9 µM)	25 (≈ 46.9 µM)	25 (≈ 46.9 µM)	25 (≈ 46.9 µM)	25 (≈ 46.9 µM)	25 (≈ 46.9 µM)	25 (≈ 46.9 µM)	86	< 10	< 10	< 10	< 10	< 10	< 10	< 10	< 10
O=C1O[C@H]([C@@H](O)CO)C(O)=C1O									96								
CSc1ccc(C2CC(c3ccc([N+](=O)[O-])cc3)=NN2c2nc(-c3ccc([N+](=O)[O-])cc3)cs2)cc1 (stereo unspecified)	25 (≈ 48.3 µM)	25 (≈ 48.3 µM)	25 (≈ 48.3 µM)	25 (≈ 48.3 µM)	25 (≈ 48.3 µM)	25 (≈ 48.3 µM)	25 (≈ 48.3 µM)	25 (≈ 48.3 µM)	75	< 10	< 10	< 10	< 10	< 10	< 10	< 10	< 10
COc1ccc(-c2ccc(C3CC(c4ccc(OC)c(OC)c4)=NN3c3nc(-c4ccc([N+](=O)[O-])cc4)cs3)o2)c([N+](=O)[O-])c1 (stereo unspecified)	12.5 (≈ 19.9 µM)	12.5 (≈ 19.9 µM)	12.5 (≈ 19.9 µM)	12.5 (≈ 19.9 µM)	12.5 (≈ 19.9 µM)	12.5 (≈ 19.9 µM)	12.5 (≈ 19.9 µM)	12.5 (≈ 19.9 µM)	86	11	11	11	11	11	11	11	11
CC1(C)S[C@@H]2[C@H](NC(=O)[C@H](N)c3ccccc3)C(=O)N2[C@H]1C(=O)O [AMPICILLIN]		6.25 (≈ 17.9 µM)	6.25 (≈ 17.9 µM)	1.56 (≈ 4.46 µM)			6.25 (≈ 17.9 µM)						25	23		30	22
CSc1ccc(C2CC(c3ccc(Cl)cc3)=NN2c2nc(-c3ccc([N+](=O)[O-])cc3)cs2)cc1 (stereo unspecified)	6.25 (≈ 12.3 µM)	6.25 (≈ 12.3 µM)	6.25 (≈ 12.3 µM)	6.25 (≈ 12.3 µM)	6.25 (≈ 12.3 µM)	6.25 (≈ 12.3 µM)	6.25 (≈ 12.3 µM)	6.25 (≈ 12.3 µM)	38	16	16	16	16	16	16	16	16
CCC(C)n1ncn(-c2ccc(N3CCN(c4ccc(OCC5COC(Cn6cncn6)(c6ccc(Cl)cc6Cl)O5)cc4)CC3)cc2)c1=O (stereo unspecified) [ITRACONAZOLE]	6.25 (≈ 8.86 µM)				6.25 (≈ 8.86 µM)	6.25 (≈ 8.86 µM)		1.56 (≈ 2.21 µM)		23	22	25			30		
